Assay results from patent US10597388B2, “Pyridazinone herbicides” (FMC CORPORATION, priority 2014, dated 2020).

Assays:
Format in all cases: in vivo
[1] = tested on: foxtail, giant (giant foxtail, Setaria faberii); experiment: Test C greenhouse herbicide test, pre- and postemergence
How it was run: (§1)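 Percent-control ratings (0 none, 100 complete) came from visual comparison with controls held alongside in the greenhouse for 13–15 d. Treatments covered soil application at sowing and foliar application to young plants 2–18 cm tall.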

[2] = tested on: morningglory (Ipomoea coccinea); experiment: as above
How it was run: as §1

[3] = tested on: crabgrass, large (large crabgrass, Digitaria sanguinalis); experiment: as above
How it was run: as §1

[4] = tested on: johnsongrass (Sorghum halepense); experiment: as above
How it was run: as §1

corn (Zea mays) = experiment: as above
How it was run: as §1

[5] = tested on: waterhemp (common waterhemp, Amaranthus rudis); experiment: as above
How it was run: as §1

[6] = tested on: lambsquarters (Chenopodium album); experiment: as above
How it was run: as §1

[7] = tested on: oilseed rape (Brassica napus); experiment: as above
How it was run: as §1

[8] = tested on: wheat (winter wheat, Triticum aestivum); experiment: as above
How it was run: as §1

kochia (Kochia scoparia) = experiment: Test A greenhouse herbicide test, pre- and postemergence
How it was run: (§2)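 Visual injury ratings, 0 (no effect) to 100 (complete control), versus untreated plants after roughly 10 d in a greenhouse. Compounds, formulated in a surfactant-containing non-phytotoxic solvent, were sprayed on loam–sand soil after sowing (pre) or on one- to two-leaf plants 2–10 cm tall (post).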

[9] = tested on: barnyardgrass (Echinochloa crus-galli); experiment: as above
How it was run: as §2

[10] = Postemergence, 31 g ai/ha, scale 0 to 100 (0 no effect, 100 complete control)
[11] = Postemergence, 62 g ai/ha, 0 to 100 scale (0 no effect, 100 complete control)
[12] = Postemergence, 250 g ai/ha, scale 0 to 100, 0 no effect, 100 complete control, 13 to 15 d
[13] = Preemergence, 31 g ai/ha, scale 0 to 100, 0 is no effect, 100 is complete control
[14] = Preemergence, 62 g ai/ha, scale 0 to 100, 0 is no effect, 100 is complete control
[15] = Preemergence, 125 g ai/ha, scale 0 to 100, 0 is no effect, 100 is complete control
[16] = Preemergence, 250 g ai/ha, scale 0 to 100, 0 no effect, 100 complete control
[17] = postemergence, 125 g ai/ha, scale 0 to 100, 0 no effect, 100 complete control
[18] = Postemergence, 125 g ai/ha, 0 to 100 scale where 0 is no effect and 100 is complete control
[19] = Postemergence, 500 g ai/ha, visual rating after approx. 10 d, 0 to 100 scale (0 no effect, 100 complete control)
[20] = Preemergence, 125 g ai/ha, 0 to 100 scale where 0 is no effect and 100 is complete control
[21] = Preemergence, 500 g ai/ha, 0 to 100 scale where 0 is no effect and 100 is complete control
[22] = Postemergence, 125 g ai/ha, 0 to 100 scale, 0 no effect, 100 complete control
[23] = Preemergence, 125 g ai/ha, visual injury rating, 0 to 100 scale (0 no effect, 100 complete control), approx. 10 d

## CCC(=O)Oc1c(C)nn(C)c(=O)c1-c1ccc(Br)c2ccccc12 [Compound 134]
[1]; [10]
  Plant response rating, Foxtail, Giant: 15
[1]; [11]
  Foxtail, Giant plant response rating: 25
[1]; [12]
  Plant response rating, Foxtail, Giant: 45
[1]; [13]
  Plant response rating, Foxtail, Giant: 25
[1]; [14]
  Plant response rating, Foxtail, Giant: 75
[1]; [15]
  Plant response rating, Foxtail, Giant: 70
[1]; [16]
  Foxtail, Giant plant response rating: 80
[1]; [17]
  Foxtail, Giant plant response rating: 35
[2]; [10]
  Plant response rating, Morningglory: 98
[2]; [11]
  Morningglory plant response rating: 100
[2]; [12]
  Plant response rating, Morningglory: 100
[2]; [13]
  Plant response rating, Morningglory: 75
[2]; [14]
  Plant response rating, Morningglory: 90
[2]; [15]
  Plant response rating, Morningglory: 95
[2]; [16]
  Morningglory plant response rating: 100
[2]; [17]
  Morningglory plant response rating: 100
[3]; [10]
  Plant response rating, Crabgrass, Large: 5
[3]; [11]
  Crabgrass, Large plant response rating: 10
[3]; [12]
  Plant response rating, Crabgrass, Large: 40
[3]; [13]
  Plant response rating, Crabgrass, Large: 5
[3]; [14]
  Plant response rating, Crabgrass, Large: 30
[3]; [15]
  Plant response rating, Crabgrass, Large: 40
[3]; [16]
  Crabgrass, Large plant response rating: 60
[3]; [17]
  Crabgrass, Large plant response rating: 15
[4]; [10]
  Plant response rating, Johnsongrass: 10
[4]; [11]
  Johnsongrass plant response rating: 10
[4]; [12]
  Plant response rating, Johnsongrass: 25
[4]; [13]
  Plant response rating, Johnsongrass: 0
[4]; [14]
  Plant response rating, Johnsongrass: 5
[4]; [15]
  Plant response rating, Johnsongrass: 5
[4]; [16]
  Johnsongrass plant response rating: 5
[4]; [17]
  Johnsongrass plant response rating: 5
Corn (Zea mays); [10]
  Plant response rating, Corn: 5
Corn (Zea mays); [11]
  Corn plant response rating: 10
Corn (Zea mays); [12]
  Plant response rating, Corn: 15
Corn (Zea mays); [13]
  Plant response rating, Corn: 0
Corn (Zea mays); [14]
  Plant response rating, Corn: 0
Corn (Zea mays); [15]
  Plant response rating, Corn: 10
Corn (Zea mays); [16]
  Corn plant response rating: 5
Corn (Zea mays); [17]
  Corn plant response rating: 10
[5]; [10]
  Plant response rating, Waterhemp: 98
[5]; [11]
  Waterhemp plant response rating: 100
[5]; [12]
  Plant response rating, Waterhemp: 100
[5]; [13]
  Plant response rating, Waterhemp: 90
[5]; [14]
  Plant response rating, Waterhemp: 98
[5]; [15]
  Plant response rating, Waterhemp: 98
[5]; [16]
  Waterhemp plant response rating: 100
[5]; [17]
  Waterhemp plant response rating: 100
[6]; [10]
  Plant response rating, Lambsquarters: 100
[6]; [11]
  Lambsquarters plant response rating: 98
[6]; [12]
  Plant response rating, Lambsquarters: 100
[6]; [13]
  Plant response rating, Lambsquarters: 75
[6]; [14]
  Plant response rating, Lambsquarters: 90
[6]; [15]
  Plant response rating, Lambsquarters: 100
[6]; [16]
  Lambsquarters plant response rating: 100
[6]; [17]
  Lambsquarters plant response rating: 100
[7]; [10]
  Plant response rating, Oilseed Rape: 95
[7]; [11]
  Oilseed Rape plant response rating: 100
[7]; [12]
  Plant response rating, Oilseed Rape: 100
[7]; [13]
  Plant response rating, Oilseed Rape: 55
[7]; [14]
  Plant response rating, Oilseed Rape: 90
[7]; [15]
  Plant response rating, Oilseed Rape: 90
[7]; [16]
  Oilseed Rape plant response rating: 98
[7]; [17]
  Oilseed Rape plant response rating: 100
[8]; [10]
  Plant response rating, Wheat: 30
[8]; [11]
  Wheat plant response rating: 50
[8]; [12]
  Plant response rating, Wheat: 90
[8]; [13]
  Plant response rating, Wheat: 0
[8]; [14]
  Plant response rating, Wheat: 0
[8]; [15]
  Plant response rating, Wheat: 15
[8]; [16]
  Wheat plant response rating: 40
[8]; [17]
  Wheat plant response rating: 65
Kochia (Kochia scoparia); [18]
  Plant response rating, Kochia: 100
Kochia (Kochia scoparia); [19]
  Plant response rating, Kochia: 100
Kochia (Kochia scoparia); [20]
  Kochia plant response rating: 70
Kochia (Kochia scoparia); [21]
  Plant response rating, Kochia: 100
[9]; [18]
  Plant response rating, Barnyardgrass: 20
[9]; [19]
  Plant response rating, Barnyardgrass: 60
[9]; [20]
  Barnyardgrass plant response rating: 20
[9]; [21]
  Plant response rating, Barnyardgrass: 90

## CC(=O)Oc1c(Cl)nn(C)c(=O)c1-c1c(C)sc2ccc(C(F)(F)F)cc12 [Compound 152]
[1]; [13]
  Plant response rating, Foxtail, Giant: 0
[1]; [14]
  Plant response rating, Foxtail, Giant: 35
[1]; [15]
  Plant response rating, Foxtail, Giant: 65
[1]; [16]
  Foxtail, Giant plant response rating: 90
[2]; [13]
  Plant response rating, Morningglory: 10
[2]; [14]
  Plant response rating, Morningglory: 40
[2]; [15]
  Plant response rating, Morningglory: 75
[2]; [16]
  Morningglory plant response rating: 90
[3]; [13]
  Plant response rating, Crabgrass, Large: 0
[3]; [14]
  Plant response rating, Crabgrass, Large: 0
[3]; [15]
  Plant response rating, Crabgrass, Large: 10
[3]; [16]
  Crabgrass, Large plant response rating: 10
[4]; [13]
  Plant response rating, Johnsongrass: 0
[4]; [14]
  Plant response rating, Johnsongrass: 0
[4]; [15]
  Plant response rating, Johnsongrass: 0
[4]; [16]
  Johnsongrass plant response rating: 5
Corn (Zea mays); [13]
  Plant response rating, Corn: 15
Corn (Zea mays); [14]
  Plant response rating, Corn: 10
Corn (Zea mays); [15]
  Plant response rating, Corn: 10
Corn (Zea mays); [16]
  Corn plant response rating: 15
[5]; [13]
  Plant response rating, Waterhemp: 20
[5]; [14]
  Plant response rating, Waterhemp: 85
[5]; [15]
  Plant response rating, Waterhemp: 85
[5]; [16]
  Waterhemp plant response rating: 75
[6]; [13]
  Plant response rating, Lambsquarters: 50
[6]; [14]
  Plant response rating, Lambsquarters: 75
[6]; [15]
  Plant response rating, Lambsquarters: 90
[6]; [16]
  Lambsquarters plant response rating: 98
[7]; [13]
  Plant response rating, Oilseed Rape: 50
[7]; [14]
  Plant response rating, Oilseed Rape: 85
[7]; [15]
  Plant response rating, Oilseed Rape: 95
[7]; [16]
  Oilseed Rape plant response rating: 100
[8]; [13]
  Plant response rating, Wheat: 0
[8]; [14]
  Plant response rating, Wheat: 10
[8]; [15]
  Plant response rating, Wheat: 25
[8]; [16]
  Wheat plant response rating: 85
Kochia (Kochia scoparia); [22]
  Plant response rating, Kochia: 30
Kochia (Kochia scoparia); [19]
  Plant response rating, Kochia: 40
Kochia (Kochia scoparia); [23]
  Plant response rating, Kochia: 30
Kochia (Kochia scoparia); [21]
  Plant response rating, Kochia: 70
[9]; [22]
  Plant response rating, Barnyardgrass: 20
[9]; [19]
  Plant response rating, Barnyardgrass: 40
[9]; [23]
  Plant response rating, Barnyardgrass: 40
[9]; [21]
  Plant response rating, Barnyardgrass: 40
